# Earlier results, collected in patent US20180344749A1, “CONTROLLED RELEASE FORMULATIONS OF SALICLATE-RELEASING ACTIVES” (Cogwellin, LLC, priority 2015, published 2018).
# Assays:
# [1] = test system: PS19 transgenic mouse model of FTD; settings: administration after disease onset
# acetyltransferase p300 = acetyltransferase p300 (Homo sapiens, UniProt Q09472); settings: for tau levels: enhance tau turnover
# [2] = not given; remark: listed apart in the source
# [3] = in terms of salicylic acid equivalents
# [4] = at anti-inflammatory doses
# tau acetylation = settings: aspirin rapidly loses its acetyl group
# Sequence of acetyltransferase p300 (Q09472 whole entry): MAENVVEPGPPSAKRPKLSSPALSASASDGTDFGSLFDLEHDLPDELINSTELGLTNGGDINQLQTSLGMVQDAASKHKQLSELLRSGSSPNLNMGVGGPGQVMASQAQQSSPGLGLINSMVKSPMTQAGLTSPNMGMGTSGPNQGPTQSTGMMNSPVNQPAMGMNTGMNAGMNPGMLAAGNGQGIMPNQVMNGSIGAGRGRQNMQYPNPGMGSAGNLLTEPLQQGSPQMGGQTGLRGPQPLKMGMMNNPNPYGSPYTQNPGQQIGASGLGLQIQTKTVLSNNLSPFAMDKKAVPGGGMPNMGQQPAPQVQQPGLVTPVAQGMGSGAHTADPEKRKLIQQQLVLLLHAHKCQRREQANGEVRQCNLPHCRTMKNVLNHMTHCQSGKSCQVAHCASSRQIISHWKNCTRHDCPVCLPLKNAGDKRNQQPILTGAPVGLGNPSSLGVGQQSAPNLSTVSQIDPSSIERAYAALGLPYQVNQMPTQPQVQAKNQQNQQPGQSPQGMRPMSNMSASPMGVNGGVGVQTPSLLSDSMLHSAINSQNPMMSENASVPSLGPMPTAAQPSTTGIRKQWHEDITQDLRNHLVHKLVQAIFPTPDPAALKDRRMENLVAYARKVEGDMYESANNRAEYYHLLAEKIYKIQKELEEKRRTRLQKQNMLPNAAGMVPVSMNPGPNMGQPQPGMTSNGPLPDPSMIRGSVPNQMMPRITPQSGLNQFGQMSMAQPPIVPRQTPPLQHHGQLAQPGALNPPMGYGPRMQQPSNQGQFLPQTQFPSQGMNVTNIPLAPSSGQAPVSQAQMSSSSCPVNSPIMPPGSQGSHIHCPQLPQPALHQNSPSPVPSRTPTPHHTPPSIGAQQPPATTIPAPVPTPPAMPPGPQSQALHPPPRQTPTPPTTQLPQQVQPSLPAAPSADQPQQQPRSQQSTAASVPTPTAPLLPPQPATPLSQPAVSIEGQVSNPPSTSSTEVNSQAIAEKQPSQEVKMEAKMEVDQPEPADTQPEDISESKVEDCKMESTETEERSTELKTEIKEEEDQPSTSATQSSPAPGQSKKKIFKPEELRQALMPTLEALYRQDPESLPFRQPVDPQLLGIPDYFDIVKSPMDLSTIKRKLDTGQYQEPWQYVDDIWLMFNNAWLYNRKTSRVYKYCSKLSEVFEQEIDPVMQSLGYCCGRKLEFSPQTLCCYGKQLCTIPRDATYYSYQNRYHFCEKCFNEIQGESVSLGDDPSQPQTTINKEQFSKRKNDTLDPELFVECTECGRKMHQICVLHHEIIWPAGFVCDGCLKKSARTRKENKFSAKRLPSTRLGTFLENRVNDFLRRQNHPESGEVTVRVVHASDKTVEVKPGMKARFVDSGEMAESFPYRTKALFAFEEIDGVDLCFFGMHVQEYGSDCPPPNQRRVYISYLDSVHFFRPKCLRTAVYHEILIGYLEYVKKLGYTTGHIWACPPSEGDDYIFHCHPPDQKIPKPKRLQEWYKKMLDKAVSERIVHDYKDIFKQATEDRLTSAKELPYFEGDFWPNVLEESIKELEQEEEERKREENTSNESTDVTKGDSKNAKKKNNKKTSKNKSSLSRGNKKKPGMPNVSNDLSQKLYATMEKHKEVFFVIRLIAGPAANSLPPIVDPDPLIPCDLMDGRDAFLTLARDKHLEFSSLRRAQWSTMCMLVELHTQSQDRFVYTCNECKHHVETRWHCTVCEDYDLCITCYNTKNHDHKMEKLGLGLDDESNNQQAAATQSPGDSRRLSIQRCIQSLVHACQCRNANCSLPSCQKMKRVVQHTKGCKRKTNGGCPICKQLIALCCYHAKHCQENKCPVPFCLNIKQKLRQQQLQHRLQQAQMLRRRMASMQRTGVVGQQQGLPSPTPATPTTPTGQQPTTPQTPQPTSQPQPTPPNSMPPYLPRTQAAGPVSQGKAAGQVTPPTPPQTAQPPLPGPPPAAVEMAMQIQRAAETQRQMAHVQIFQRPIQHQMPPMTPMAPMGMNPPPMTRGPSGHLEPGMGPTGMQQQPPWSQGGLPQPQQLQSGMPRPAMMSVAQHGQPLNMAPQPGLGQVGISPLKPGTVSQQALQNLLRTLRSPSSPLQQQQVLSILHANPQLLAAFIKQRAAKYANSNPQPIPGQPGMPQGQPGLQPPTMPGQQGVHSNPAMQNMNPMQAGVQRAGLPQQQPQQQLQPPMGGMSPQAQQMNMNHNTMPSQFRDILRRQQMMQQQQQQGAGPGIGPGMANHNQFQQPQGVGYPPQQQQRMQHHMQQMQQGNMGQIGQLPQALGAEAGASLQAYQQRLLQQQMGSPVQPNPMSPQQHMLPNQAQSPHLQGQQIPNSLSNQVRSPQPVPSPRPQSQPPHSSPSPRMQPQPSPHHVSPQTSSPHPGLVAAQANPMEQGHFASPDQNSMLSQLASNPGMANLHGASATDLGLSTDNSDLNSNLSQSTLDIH
SMILES,brain penetration (in vivo),stability of salicylate levels after salsalate (over 8 hours),hippocampal atrophy [1],levels of total tau and tau acetylated at K174 [1],p300 activity [1],tau-induced memory deficits [1],acetyltransferase p300-induced tau acetylation (acetyltransferase p300),tau levels (acetyltransferase p300),solubility in the pH of the small intestine ([2]; small intestine pH),behaviour in the pH of the stomach [2],salicylic acid obtained relative to an equivalent dose of aspirin (relative AUC) [3],gastrointestinal bleeding and gastric erosions compared with aspirin [4],tau acetylation in cell cultures (tau acetylation)
O=C(Oc1ccccc1C(=O)O)c1ccccc1O [salsalate],penetrates the brain,relatively stable salicylate levels over 8 hours,prevented,lowered,inhibited p300 activity,rescued,inhibited,reduce tau levels,soluble,undergoes particulate dispersion,approximately 84%,significantly less,
"CC(=O)Oc1ccccc1C(=O)O [aspirin, acetylsalicylic acid]",,,,,,,,,,soluble,,,boost tau acetylation
"O=C(O)c1ccccc1O [salicylate, salicylic acid]",,,,,,,inhibited,reduce tau levels,,,,,
